Blank lines part the entries; values can stand above or below the molecule they belong to.
Assays:
Recombinant JAK1 = target: T1, Recombinant JAK1 (Homo sapiens, UniProt P23458); test: JAK biochemical assay (LANCE Ultra TR-FRET), JAK1; details: recombinant JAK1, TR-FRET; read-out: Biochemical Assay (μM) JAK1
T1 construct: purchased Carna Biosciences
Experimental: (§1) Recombinant JAK1, JAK2, JAK3 and TYK2 (Carna Biosciences) were used to develop biochemical assays in 50 mM HEPES pH 7.5, 1 mM EGTA, 10 mM MgCl2, 2 mM DTT and 0.01% Tween-20. […] The intensity of the light emission is proportional to the level of ULight substrate phosphorylation. Compounds which interfere with JAK enzyme activity show a lesser substrate phosphorylation and values are projected in terms of % inhibition in comparison to vehicle control.

Recombinant JAK2 = target: T2, Recombinant JAK2 (Homo sapiens, UniProt O60674); test: JAK biochemical assay (LANCE Ultra TR-FRET), JAK2; details: recombinant JAK2, TR-FRET; read-out: Biochemical Assay (μM) JAK2
T2 construct: purchased Carna Biosciences
T2 sequence (O60674 whole entry): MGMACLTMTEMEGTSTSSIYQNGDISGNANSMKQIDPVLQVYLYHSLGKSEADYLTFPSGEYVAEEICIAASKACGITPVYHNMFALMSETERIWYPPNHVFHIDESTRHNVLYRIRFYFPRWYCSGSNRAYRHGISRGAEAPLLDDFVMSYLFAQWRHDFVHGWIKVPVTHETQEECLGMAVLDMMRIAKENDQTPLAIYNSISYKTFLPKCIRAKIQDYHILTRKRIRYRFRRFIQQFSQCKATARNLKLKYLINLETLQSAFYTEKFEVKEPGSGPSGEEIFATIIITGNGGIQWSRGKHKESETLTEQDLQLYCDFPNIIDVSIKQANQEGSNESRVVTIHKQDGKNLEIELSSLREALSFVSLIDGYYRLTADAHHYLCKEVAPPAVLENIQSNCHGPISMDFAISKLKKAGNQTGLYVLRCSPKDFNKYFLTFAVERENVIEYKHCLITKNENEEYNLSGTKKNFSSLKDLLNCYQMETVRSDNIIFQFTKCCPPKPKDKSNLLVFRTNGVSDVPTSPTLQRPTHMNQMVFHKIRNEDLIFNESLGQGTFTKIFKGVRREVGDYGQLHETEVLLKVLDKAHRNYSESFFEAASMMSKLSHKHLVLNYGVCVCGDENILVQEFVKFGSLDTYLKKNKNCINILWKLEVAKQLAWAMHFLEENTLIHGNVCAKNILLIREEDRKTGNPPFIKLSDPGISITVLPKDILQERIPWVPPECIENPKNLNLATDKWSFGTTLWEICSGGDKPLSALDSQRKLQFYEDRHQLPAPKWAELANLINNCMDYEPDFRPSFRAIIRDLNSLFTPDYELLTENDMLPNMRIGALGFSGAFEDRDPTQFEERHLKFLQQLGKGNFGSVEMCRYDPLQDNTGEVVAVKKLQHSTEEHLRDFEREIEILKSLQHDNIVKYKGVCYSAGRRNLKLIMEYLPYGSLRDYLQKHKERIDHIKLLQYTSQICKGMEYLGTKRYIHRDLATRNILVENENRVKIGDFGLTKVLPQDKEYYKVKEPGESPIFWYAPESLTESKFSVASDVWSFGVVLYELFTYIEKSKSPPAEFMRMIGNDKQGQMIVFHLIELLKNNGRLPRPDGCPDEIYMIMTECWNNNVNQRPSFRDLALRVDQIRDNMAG
Experimental: as §1

Recombinant TYK2 = target: T3, Recombinant TYK2 (Homo sapiens, UniProt P29597); test: JAK biochemical assay (LANCE Ultra TR-FRET), TYK2; details: recombinant TYK2, TR-FRET; read-out: Biochemical Assay (μM) TYK2
T3 construct: purchased Carna Biosciences
T3 sequence (P29597 whole entry): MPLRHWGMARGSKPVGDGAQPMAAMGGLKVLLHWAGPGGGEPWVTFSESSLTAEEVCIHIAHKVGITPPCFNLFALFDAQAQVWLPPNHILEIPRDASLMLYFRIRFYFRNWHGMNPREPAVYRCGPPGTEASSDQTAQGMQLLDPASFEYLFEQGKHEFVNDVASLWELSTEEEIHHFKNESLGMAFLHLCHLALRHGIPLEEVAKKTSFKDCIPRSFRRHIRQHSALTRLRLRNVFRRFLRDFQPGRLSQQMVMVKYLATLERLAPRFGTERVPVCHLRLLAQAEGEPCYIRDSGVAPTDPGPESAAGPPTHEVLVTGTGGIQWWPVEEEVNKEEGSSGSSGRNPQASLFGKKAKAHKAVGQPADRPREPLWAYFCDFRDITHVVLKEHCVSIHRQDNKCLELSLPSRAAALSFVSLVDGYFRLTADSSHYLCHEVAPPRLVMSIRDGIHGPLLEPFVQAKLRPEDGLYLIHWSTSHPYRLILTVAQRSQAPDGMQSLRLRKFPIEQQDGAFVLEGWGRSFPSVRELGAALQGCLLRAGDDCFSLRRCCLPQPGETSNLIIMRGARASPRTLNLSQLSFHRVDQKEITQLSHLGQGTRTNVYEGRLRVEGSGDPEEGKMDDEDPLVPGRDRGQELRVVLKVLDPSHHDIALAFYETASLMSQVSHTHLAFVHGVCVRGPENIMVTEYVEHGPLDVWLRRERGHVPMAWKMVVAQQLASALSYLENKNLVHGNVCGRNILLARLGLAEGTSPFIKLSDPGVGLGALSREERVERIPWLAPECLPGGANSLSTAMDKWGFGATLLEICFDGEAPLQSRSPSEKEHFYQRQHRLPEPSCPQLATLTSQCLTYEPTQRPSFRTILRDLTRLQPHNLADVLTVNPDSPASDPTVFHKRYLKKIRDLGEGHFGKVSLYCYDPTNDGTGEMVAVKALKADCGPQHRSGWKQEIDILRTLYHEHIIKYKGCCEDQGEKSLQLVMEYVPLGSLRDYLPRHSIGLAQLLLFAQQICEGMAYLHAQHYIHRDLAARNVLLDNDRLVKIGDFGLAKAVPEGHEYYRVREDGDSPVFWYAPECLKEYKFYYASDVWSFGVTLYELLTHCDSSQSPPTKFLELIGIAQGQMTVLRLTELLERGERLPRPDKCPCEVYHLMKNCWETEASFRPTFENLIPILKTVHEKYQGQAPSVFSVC
Experimental: as §1

Recombinant JAK3 = target: T4, Recombinant JAK3 (Homo sapiens, UniProt P52333); test: JAK biochemical assay (LANCE Ultra TR-FRET), JAK3; details: recombinant JAK3, TR-FRET; read-out: Biochemical Assay (μM) JAK3
T4 construct: purchased Carna Biosciences
T4 sequence (P52333 1-1124): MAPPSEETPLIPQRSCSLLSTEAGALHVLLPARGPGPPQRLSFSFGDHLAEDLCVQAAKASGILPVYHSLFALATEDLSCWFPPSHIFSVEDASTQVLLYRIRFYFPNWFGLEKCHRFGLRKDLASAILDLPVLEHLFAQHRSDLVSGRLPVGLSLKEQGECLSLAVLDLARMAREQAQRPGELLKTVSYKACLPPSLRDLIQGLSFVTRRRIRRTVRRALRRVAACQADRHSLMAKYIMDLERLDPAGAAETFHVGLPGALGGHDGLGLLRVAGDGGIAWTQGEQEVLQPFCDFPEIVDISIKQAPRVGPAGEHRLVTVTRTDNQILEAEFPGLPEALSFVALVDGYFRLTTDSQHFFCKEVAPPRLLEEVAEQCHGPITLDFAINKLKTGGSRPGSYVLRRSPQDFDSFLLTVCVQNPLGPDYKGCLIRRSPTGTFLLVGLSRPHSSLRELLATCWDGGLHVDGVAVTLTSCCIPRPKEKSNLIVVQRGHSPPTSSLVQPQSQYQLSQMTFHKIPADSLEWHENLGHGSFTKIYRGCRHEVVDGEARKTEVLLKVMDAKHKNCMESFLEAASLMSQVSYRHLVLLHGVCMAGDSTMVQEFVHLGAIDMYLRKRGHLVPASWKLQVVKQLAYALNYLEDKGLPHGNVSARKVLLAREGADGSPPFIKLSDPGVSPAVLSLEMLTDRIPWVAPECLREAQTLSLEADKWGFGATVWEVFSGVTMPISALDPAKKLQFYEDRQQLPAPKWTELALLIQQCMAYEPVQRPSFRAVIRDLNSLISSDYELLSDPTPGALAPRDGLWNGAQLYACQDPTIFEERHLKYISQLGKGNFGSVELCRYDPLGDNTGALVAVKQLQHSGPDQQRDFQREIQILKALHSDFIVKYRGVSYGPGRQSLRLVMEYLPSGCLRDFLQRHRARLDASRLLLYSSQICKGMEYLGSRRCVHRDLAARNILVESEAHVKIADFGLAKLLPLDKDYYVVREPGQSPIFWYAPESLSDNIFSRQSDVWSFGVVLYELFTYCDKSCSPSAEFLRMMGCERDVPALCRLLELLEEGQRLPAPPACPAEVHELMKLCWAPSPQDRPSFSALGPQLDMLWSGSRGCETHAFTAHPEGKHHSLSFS
Experimental: as §1

T1 sequence (P23458 whole entry): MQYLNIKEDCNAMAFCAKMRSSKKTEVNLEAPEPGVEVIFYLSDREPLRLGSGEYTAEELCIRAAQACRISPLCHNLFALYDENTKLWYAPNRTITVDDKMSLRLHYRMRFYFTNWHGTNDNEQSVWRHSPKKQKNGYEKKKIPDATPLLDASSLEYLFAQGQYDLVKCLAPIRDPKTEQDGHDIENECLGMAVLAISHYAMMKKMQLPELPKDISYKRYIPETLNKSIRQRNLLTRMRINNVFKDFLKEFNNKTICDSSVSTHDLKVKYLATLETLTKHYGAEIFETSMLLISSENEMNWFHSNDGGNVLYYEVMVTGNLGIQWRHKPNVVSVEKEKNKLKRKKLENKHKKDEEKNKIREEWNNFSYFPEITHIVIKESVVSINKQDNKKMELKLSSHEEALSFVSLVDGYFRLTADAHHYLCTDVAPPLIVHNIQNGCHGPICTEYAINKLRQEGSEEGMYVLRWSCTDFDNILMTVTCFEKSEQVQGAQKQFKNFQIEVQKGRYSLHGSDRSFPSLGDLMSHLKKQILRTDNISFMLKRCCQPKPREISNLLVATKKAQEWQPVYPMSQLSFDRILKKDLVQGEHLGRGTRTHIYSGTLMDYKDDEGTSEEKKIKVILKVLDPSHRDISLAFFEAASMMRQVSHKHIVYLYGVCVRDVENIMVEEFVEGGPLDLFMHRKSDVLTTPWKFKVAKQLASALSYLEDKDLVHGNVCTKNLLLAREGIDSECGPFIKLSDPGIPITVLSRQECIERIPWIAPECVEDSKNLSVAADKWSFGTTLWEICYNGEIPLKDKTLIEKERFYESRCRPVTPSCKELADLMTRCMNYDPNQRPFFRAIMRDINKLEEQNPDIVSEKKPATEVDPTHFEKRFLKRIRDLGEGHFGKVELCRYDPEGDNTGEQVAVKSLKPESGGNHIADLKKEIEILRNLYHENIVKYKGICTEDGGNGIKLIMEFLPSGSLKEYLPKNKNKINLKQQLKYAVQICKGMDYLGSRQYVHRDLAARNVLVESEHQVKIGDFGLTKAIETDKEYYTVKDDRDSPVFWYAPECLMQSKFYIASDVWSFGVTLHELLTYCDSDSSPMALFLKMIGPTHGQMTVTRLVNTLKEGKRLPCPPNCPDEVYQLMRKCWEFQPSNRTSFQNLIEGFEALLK

SMILES: N#CCNC(=O)c1ccc(-n2cc(-c3ccnc4[nH]cnc34)cn2)nc1 [Example 1088, 6-(4-(3H-imidazo[4,5-b]pyridin-7-yl)-1H-pyrazol-1-yl)-N-(cyanomethyl)pyridine-3-carboxamide]
- IC50 (Recombinant JAK1): > 1 µM
- IC50 (Recombinant JAK2): > 1 µM
- IC50 (Recombinant TYK2): > 1 µM
- IC50 (Recombinant JAK3): > 1 µM

SMILES: O=C(CN1CCN(c2ccnc3[nH]c(=O)[nH]c23)CC1)NCC(F)(F)F [Example 1025, N-(2,2,2-trifluoroethyl)-2-(4-(2,3-dihydro-2-oxo-1H-imidazo[4,5-b]pyridin-7-yl)piperazin-1-yl)acetamide]
- IC50 (Recombinant JAK1): > 10 µM
- IC50 (Recombinant JAK2): > 10 µM
- IC50 (Recombinant TYK2): > 10 µM
- IC50 (Recombinant JAK3): > 10 µM

SMILES: O=C(NCC(F)(F)F)c1ccc(-c2ccnc3[nH]c(=O)[nH]c23)cc1 [Example 1001, N-(2,2,2-trifluoroethyl)-4-(2,3-dihydro-2-oxo-1H-imidazo[4,5-b]pyridin-7-yl)benzamide]
- IC50 (Recombinant JAK1): > 10 µM
- IC50 (Recombinant JAK2): > 10 µM
- IC50 (Recombinant TYK2): > 10 µM
- IC50 (Recombinant JAK3): > 10 µM

SMILES: CS(=O)(=O)N1CCC(NC(=O)N2CCN(c3ccnc4[nH]c(=O)[nH]c34)CC2)CC1 [Example 1016, N-(1-(methylsulfonyl)piperidin-4-yl)-4-(2-oxo-2,3-dihydro-1H-imidazo[4,5-b]pyridin-7-yl)piperazine-1-carboxamide]
- IC50 (Recombinant JAK1): > 10 µM
- IC50 (Recombinant JAK2): > 10 µM
- IC50 (Recombinant TYK2): > 10 µM
- IC50 (Recombinant JAK3): > 10 µM

SMILES: CCCS(=O)(=O)NC1CCN(C(=O)n2cc(-c3ccnc4[nH]cnc34)cn2)C1 (stereo not drawn) [Example 1069, N-(1-(4-(3H-imidazo[4,5-b]pyridin-7-yl)-1H-pyrazole-1-carbonyl)pyrrolidin-3-yl)propane-1-sulfonamide]
- IC50 (Recombinant JAK1): > 10 µM
- IC50 (Recombinant JAK2): > 1 µM
- IC50 (Recombinant TYK2): > 1 µM
- IC50 (Recombinant JAK3): > 0.5 µM

SMILES: O=C(NCC(F)(F)F)n1cc(-c2ccnc3[nH]c(C4CC4)nc23)cn1 [Example 1096, 4-(2-cyclopropyl-3H-imidazo[4,5-b]pyridin-7-yl)-N-(2,2,2-trifluoroethyl)-1H-pyrazole-1-carboxamide]
- IC50 (Recombinant JAK1): > 10 µM
- IC50 (Recombinant JAK2): > 1 µM
- IC50 (Recombinant TYK2): > 10 µM
- IC50 (Recombinant JAK3): > 1 µM

SMILES: COC(CCS(C)(=O)=O)c1ccc(-n2cc(-c3ccnc4[nH]cnc34)cn2)nc1 (stereo not drawn) [Example 1161, 7-(1-(5-(1-methoxy-3-(methylsulfonyl)propyl)pyridin-2-yl)-1H-pyrazol-4-yl)-3H-imidazo[4,5-b]pyridine]
- IC50 (Recombinant JAK1): > 1 µM
- IC50 (Recombinant JAK2): > 1 µM
- IC50 (Recombinant TYK2): > 1 µM
- IC50 (Recombinant JAK3): > 0.5 µM

SMILES: N#CCC(=O)NCc1ccc(-n2cc(-c3ccnc4[nH]cnc34)cn2)nc1 [Example 1091, N-((6-(4-(3H-imidazo[4,5-b]pyridin-7-yl)-1H-pyrazol-1-yl)pyridin-3-yl)methyl)-2-cyanoacetamide]
- IC50 (Recombinant JAK1): > 0.5 µM
- IC50 (Recombinant JAK2): > 1 µM
- IC50 (Recombinant TYK2): > 10 µM
- IC50 (Recombinant JAK3): > 0.5 µM

SMILES: N#CC(NC(=O)n1cc(-c2ccnc3[nH]c(=O)[nH]c23)cn1)c1ccccc1 (stereo not drawn) [Example 1063, N-(cyano(phenyl)methyl)-4-(2,3-dihydro-2-oxo-1H-imidazo[4,5-b]pyridin-7-yl)-1H-pyrazole-1-carboxamide]
- IC50 (Recombinant JAK1): > 0.5 µM
- IC50 (Recombinant JAK2): < 0.5 µM
- IC50 (Recombinant TYK2): < 0.5 µM
- IC50 (Recombinant JAK3): > 0.5 µM

SMILES: O=C(Nc1ccc(-c2ccnc3[nH]c(=O)[nH]c23)cc1)N1CCOCC1 [Example 1008, N-(4-(2,3-dihydro-2-oxo-1H-imidazo[4,5-b]pyridin-7-yl)phenyl)morpholine-4-carboxamide]
- IC50 (Recombinant JAK1): > 1 µM
- IC50 (Recombinant JAK2): > 1 µM
- IC50 (Recombinant TYK2): > 10 µM
- IC50 (Recombinant JAK3): > 1 µM

SMILES: Cc1cc(S(C)(=O)=O)ccc1NC(=O)N1CCN(c2ccnc3[nH]c(=O)[nH]c23)CC1 [Example 1024, 4-(2,3-dihydro-2-oxo-1H-imidazo[4,5-b]pyridin-7-yl)-N-(2-methyl-4-(methylsulfonyl)phenyl)piperazine-1-carboxamide]
- IC50 (Recombinant JAK1): > 1 µM
- IC50 (Recombinant JAK2): > 1 µM
- IC50 (Recombinant TYK2): > 1 µM
- IC50 (Recombinant JAK3): > 1 µM

The remaining lines, values ahead:

- IC50 (Recombinant JAK1): > 0.1 µM
- IC50 (Recombinant JAK2): > 0.5 µM
- IC50 (Recombinant TYK2): > 1 µM
- IC50 (Recombinant JAK3): > 0.1 µM
SMILES: CC(C)(CO)C(c1ccc(-n2cc(-c3ccnc4[nH]cnc34)cn2)nc1)C(F)(F)F (stereo not drawn) [Example 1196, 3-(6-(4-(3H-imidazo[4,5-b]pyridin-7-yl)-1H-pyrazol-1-yl)pyridin-3-yl)-4,4,4-trifluoro-2,2-dimethylbutan-1-ol]

- IC50 (Recombinant JAK1): > 0.5 µM
- IC50 (Recombinant JAK2): > 0.5 µM
- IC50 (Recombinant TYK2): > 1 µM
- IC50 (Recombinant JAK3): > 0.5 µM
SMILES: CS(=O)(=O)CC(Cc1ccc(-n2cc(-c3ccnc4[nH]cnc34)cn2)nc1)C(F)(F)F (stereo not drawn) [Example 1194, 7-(1-(5-(3,3,3-trifluoro-2-((methylsulfonyl)methyl)propyl)pyridin-2-yl)-1H-pyrazol-4-yl)-3H-imidazo[4,5-b]pyridine]

- IC50 (Recombinant JAK1): < 0.1 µM
- IC50 (Recombinant JAK2): < 0.1 µM
- IC50 (Recombinant TYK2): > 1 µM
- IC50 (Recombinant JAK3): < 0.1 µM
SMILES: O=S(=O)(CCC(c1ccc(-n2cc(-c3ccnc4[nH]cnc34)cn2)nc1)C(F)(F)F)CC1CC1 (stereo not drawn) [Example 1204, 7-(1-(5-(4-(cyclopropylmethylsulfonyl)-1,1,1-trifluorobutan-2-yl)pyridin-2-yl)-1H-pyrazol-4-yl)-3H-imidazo[4,5-b]pyridine]

- IC50 (Recombinant JAK1): > 0.5 µM
- IC50 (Recombinant JAK2): > 1 µM
- IC50 (Recombinant TYK2): > 10 µM
- IC50 (Recombinant JAK3): > 1 µM
SMILES: N#CC1CN(Cc2ccc(-n3cc(-c4ccnc5[nH]cnc45)cn3)nc2)C1 [Example 1087, 1-((6-(4-(3H-imidazo[4,5-b]pyridin-7-yl)-1H-pyrazol-1-yl)pyridin-3-yl)methyl)azetidine-3-carbonitrile]

- IC50 (Recombinant JAK1): > 0.5 µM
- IC50 (Recombinant JAK2): > 0.5 µM
- IC50 (Recombinant TYK2): > 1 µM
- IC50 (Recombinant JAK3): < 0.5 µM
SMILES: OCc1ccc(-n2cc(-c3ccnc4[nH]cnc34)cn2)nc1 [Example 1083, (6-(4-(3H-imidazo[4,5-b]pyridin-7-yl)-1H-pyrazol-1-yl)pyridin-3-yl)methanol]

- IC50 (Recombinant JAK1): > 0.1 µM
- IC50 (Recombinant JAK2): > 0.5 µM
- IC50 (Recombinant TYK2): > 1 µM
- IC50 (Recombinant JAK3): > 0.1 µM
SMILES: N#CC(c1ccc(-n2cc(-c3ccnc4[nH]cnc34)cn2)nc1)C1CC1 (stereo not drawn) [Example 1110, 2-(6-(4-(3H-imidazo[4,5-b]pyridin-7-yl)-1H-pyrazol-1-yl)pyridin-3-yl)-2-cyclopropylacetonitrile]

- IC50 (Recombinant JAK1): < 0.1 µM
- IC50 (Recombinant JAK2): > 0.1 µM
- IC50 (Recombinant TYK2): > 0.5 µM
- IC50 (Recombinant JAK3): < 0.1 µM
SMILES: FC(F)(F)C(CCNC1CCCCC1)c1ccc(-n2cc(-c3ccnc4[nH]cnc34)cn2)nc1 (stereo not drawn) [Example 1199, N-(3-(6-(4-(3H-imidazo[4,5-b]pyridin-7-yl)-1H-pyrazol-1-yl)pyridin-3-yl)-4,4,4-trifluorobutyl)cyclohexanamine]

- IC50 (Recombinant JAK1): < 0.5 µM
- IC50 (Recombinant JAK2): < 0.5 µM
- IC50 (Recombinant TYK2): < 0.5 µM
- IC50 (Recombinant JAK3): < 0.5 µM
SMILES: N#CCC(NC(=O)n1cc(-c2ccnc3[nH]c(=O)[nH]c23)cn1)C1CCOCC1 (stereo not drawn) [Example 1062, N-(2-cyano-1-(tetrahydro-2H-pyran-4-yl)ethyl)-4-(2,3-dihydro-2-oxo-1H-imidazo[4,5-b]pyridin-7-yl)-1H-pyrazole-1-carboxamide]

- IC50 (Recombinant JAK1): > 0.1 µM
- IC50 (Recombinant JAK2): > 0.1 µM
- IC50 (Recombinant TYK2): > 1 µM
- IC50 (Recombinant JAK3): > 0.5 µM
SMILES: FC(F)(F)C(CN1CCOCC1)c1ccc(-n2cc(-c3ccnc4[nH]cnc34)cn2)nc1 (stereo not drawn) [Example 1206, 7-(1-(5-(1,1,1-trifluoro-3-morpholinopropan-2-yl)pyridin-2-yl)-1H-pyrazol-4-yl)-3H-imidazo[4,5-b]pyridine]

- IC50 (Recombinant JAK1): < 0.1 µM
- IC50 (Recombinant JAK2): > 0.1 µM
- IC50 (Recombinant TYK2): > 1 µM
- IC50 (Recombinant JAK3): > 0.1 µM
SMILES: O=S(=O)(CC1CC1)CC(c1ccc(-n2cc(-c3ccnc4[nH]cnc34)cn2)nc1)C(F)(F)F (stereo not drawn) [Example 1205, 7-(1-(5-(3-(cyclopropylmethylsulfonyl)-1,1,1-trifluoropropan-2-yl)pyridin-2-yl)-1H-pyrazol-4-yl)-3H-imidazo[4,5-b]pyridine]

Reference: patent US12516056B2, “Compounds for inhibition of janus kinase 1” (MANKIND PHARMA LTD., priority 2019, dated 2026)
